# Tests used:
# [1] = test system: LS174T human colon carcinoma xenografts; test: Growth inhibition of established LS174T human colon carcinoma xenografts; assay type: in vivo, athymic nude mice; settings: Day 18 of separate 25-day study; high sunitinib dose 50 mg/kg daily, alone or with B20-4.1
# Protocol: (§1) Volume was calculated using the formula:
# (§2) Tumor Volume(mm^3)=(W2×l)/2
# (§3) Tumors were measured twice weekly using calipers. […] Treatment outcome was based on tumor growth inhibition (TGI).
# (§4) Animals were monitored for regression responses.
# [2] = test system: H1299 human non-small cell lung carcinoma (NSCLC) xenografts; test: Growth inhibition of established H1299 human NSCLC xenografts; assay type: in vivo, athymic nude mice; settings: Day 19, longer term study, alone or with B20-4.1
# Protocol: as §1, §2, §3, §4
# [3] = test system: 786-O renal cell carcinoma (RCC) xenografts; test: Growth inhibition of established 786-O renal cell carcinoma xenografts; assay type: in vivo, athymic nude mice; settings: high sunitinib dose 50 mg/kg daily, alone or with B20-4.1
# Protocol: as §1, §2, §3, §4
# [4] = test system: Caki-2 human renal cell carcinoma xenografts; test: Growth inhibition of established Caki-2 renal cell carcinoma xenografts; assay type: in vivo, SCID mice
# Protocol: as §1, §2, §3, §4
smiles,measurement,setting,value
"CCN(CC)CCNC(=O)c1c(C)[nH]c(/C=C2\C(=O)Nc3ccc(F)cc32)c1C [sunitinib, N-[2-(diethylamino)ethyl]-5-[(Z)-(5-fluoro-1,2-dihydro-2-oxo-3H-indol-3-ylidine)methyl]-2,4-dimethyl-1H-pyrrole-3-carboxamde]",TGI (tumor growth inhibition),[1],43%
same,TGI (tumor growth inhibition),[2]; sunitinib 25 mg/kg daily,32%
same,TGI (tumor growth inhibition),[2]; sunitinib 50 mg/kg daily,62%
same,TGI (tumor growth inhibition),[3],80%
same,TGI (tumor growth inhibition),"[4]; Day 29, high dose (50 mg/kg) sunitinib, alone or with B20-4.1",62%
same,Day 29 mean tumor volumes (MTVs),[4]; low dose (25 mg/kg) sunitinib monotherapy,352 mm^3

# From patent US20080199464A1, “Combination Therapy with Angiogenesis Inhibitors” (Genentech, Inc., priority 2007, published 2008)
